# Data taken from US10624875B2, “Methods and compositions for treating schizophrenia” (The Johns Hopkins University, priority 2012, dated 2020).
# “And” between values parts separate entries of the source, which are not always exact repeats. Identical values can stand only once.
# Key:
# HPC neurons = conditions: saline-treated and MAM-treated animals; cited from earlier work
# MAM-treated rats [1] = conditions: cited from earlier work
# MAM-treated rats [2] = conditions: administered systemically and directly infused into the ventral HPC; cited from earlier work
# aged-impaired (AI) rats = test: eight-arm Radial Arm Maze (RAM) task with one-hour delay, spatial memory retention; assay type: in vivo, rat; conditions: drug on its own (levetiracetam i.p., valproate subcutaneous)
# Protocol: The effects of levetiracetam on the spatial memory retention of aged-impaired (AI) rats were assessed in a Radial Arm Maze (RAM) behavioral task using vehicle control and five different dosage levels of levetiracetam (1.25 mg/kg/day, 2.5 mg/kg/day, 5 mg/kg/day, 10 mg/kg/day and 20 mg/kg/day). RAM behavioral tasks were preformed on ten AI rats. All six treatment conditions were tested on all ten rats, as described above for the MWM test. The RAM apparatus used consisted of eight equidistantly-spaced arms. An elevated maze arm (7 cm width×75 cm length) projected from each facet of an octagonal center platform (30 cm diameter, 51.5 cm height). Clear side walls on the arms were 10 cm high and were angled at 65° to form a trough. A food well (4 cm diameter, 2 cm deep) was located at the distal end of each arm. Froot Loops™ (Kellogg Company) were used as rewards. Blocks constructed of Plexiglas™ (30 cm height×12 cm width) could be positioned to prevent entry to any arm. Numerous extra maze cues surrounding the apparatus were also provided. The AI rats were initially subjected to a pre-training test (Chappell et al. Neuropharmacology 37: 481-487, 1998). The pre-training test consisted of a habituation phase (4 days), a training phase on the standard win-shift task (18 days) and another training phase (14 days) in which a brief delay was imposed between presentation of a subset of arms designated by the experimenter (e.g., 5 arms available and 3 arms blocked) and completion of the eight-arm win-shift task (i.e., with all eight arms available). In the habituation phase, rats were familiarized to the maze for an 8-minute session on four consecutive days. In each of these sessions food rewards were scattered on the RAM, initially on the center platform and arms and then progressively confined to the arms. After this habituation phase, a standard training protocol was used, in which a food pellet was located at the end of each arm. Rats received one trial each day for 18 days. Each daily trial terminated when all eight food pellets had been obtained or when either 16 choices were made or 15 minutes had elapsed. After completion of this training phase, a second training phase was carried out in which the memory demand was increased by imposing a brief delay during the trial. At the beginning of each trial, three arms of the eight-arm maze were blocked. Rats were allowed to obtain food on the five arms to which access was permitted during this initial ‘information phase’ of the trial. Rats were then removed from the maze for 60 seconds, during which time the barriers on the maze were removed, thus allowing access to all eight arms. Rats were then placed back onto the center platform and allowed to obtain the remaining food rewards during this ‘retention test’ phase of the trial. The identity and configuration of the blocked arms varied across trials. The number of “errors” the AI rats made during the retention test phase was tracked. An error occurred in the trial if the rats entered an arm from which food had already been retrieved in the pre-delay component of the trial, or if it re-visited an arm in the post-delay session that had already been visited. After completion of the pre-training test, rats were subjected to trials with more extended delay intervals, i.e., a one-hour delay, between the information phase (presentation with some blocked arms) and the retention test (presentation of all arms). […]
Structure (SMILES),cortical-evoked responses of HPC neurons (HPC neurons),increased locomotor response to amphetamine (MAM-treated rats [1]),number of spontaneously active DA neurons in the ventral tegmental area (VTA) (MAM-treated rats [2]),dose effective in reducing the number of errors (aged-impaired (AI) rats) [mg/kg],dose not effective in reducing the number of errors (aged-impaired (AI) rats)
C#Cc1ccc2c(c1)C(c1ccccc1F)=N[C@H](C)c1c(C(=O)OCC)ncn1-2 [SH-053-2′F—R—CH3],diminished cortical-evoked responses,is reduced,reduces the number of spontaneously active DA neurons,–,–
CCCC(CCC)C(=O)O [Valproate],–,–,–,100,25 mg/kg and 50 mg/kg
